From patent publication US20250171459A1, “2-METHYL-4',5'-DIHYDROSPIRO[PIPERIDINE-4,7'-THIENO[2,3-C]PYRAN] DERIVATIVES AS INHIBITORS OF APOL1 AND METHODS OF USING SAME” (Vertex Pharmaceuticals Incorporated, priority 2022, published 2025)

Molecular target: T1, APOL1 (Homo sapiens, UniProt O14791)
T1 sequence (O14791 1-398 S342G/I384M): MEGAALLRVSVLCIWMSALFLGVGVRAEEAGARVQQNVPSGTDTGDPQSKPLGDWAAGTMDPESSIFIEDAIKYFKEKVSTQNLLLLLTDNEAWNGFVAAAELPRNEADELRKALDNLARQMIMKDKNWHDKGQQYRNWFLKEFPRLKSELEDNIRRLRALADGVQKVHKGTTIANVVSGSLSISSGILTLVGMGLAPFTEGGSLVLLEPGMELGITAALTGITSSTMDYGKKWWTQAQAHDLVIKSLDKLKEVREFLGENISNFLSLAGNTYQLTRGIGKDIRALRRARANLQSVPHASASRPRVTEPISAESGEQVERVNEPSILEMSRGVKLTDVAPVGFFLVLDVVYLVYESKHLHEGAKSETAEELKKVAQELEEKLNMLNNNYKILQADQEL
Assay: MultiTox-Fluor Multiplex Cytotoxicity Assay in tet-inducible APOL1 T-REx-HEK293 cells (cell rescue, ratio of dead to live cells)
Format: cell-based
Conditions: tet-inducible transgenic APOL1 T-REx-HEK293 cell lines, 50 ng/mL tet, 24 hours; read-out: IP50 (i.e., IC50 for cell proliferation)
Procedure, shortened: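 T-REx-HEK293 cells with tet-inducible APOL1 were treated with compound (10 μM top, 10-point 3-fold dilution, duplicate) plus 50 ng/mL tetracycline for 24 h at 37° C, in DMEM with 2% tet-free FBS. MultiTox-Fluor protease signals gave a dead/live ratio, normalized to no tet (100% viability) and tet alone (0%).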

| Compound | IC50 [µM] |
| --- | --- |
| CCc1cc2c(s1)CCOC21CCN(Cc2ccc(C(=O)Nc3ccnn3C)nc2)CC1 [Compound 1052] | < 0.1 |
| CCc1cc2c(s1)CCO[C@@]21CCN(Cc2cn(C3C[C@@H](CO)NC3=O)nn2)[C@@H](C)C1 (some centres unmarked) [Compound 166] | 0.5 to 1 |
| C[C@H]1C[C@@]2(CCN1CC1CCOCC1)OCCc1cc(Cl)sc12 [Compound 685] | 0.5 to 1 |
| C[C@H]1C[C@@]2(CCN1C[C@H]1C[C@@H](NC(=O)C3CC3)C1)OCCc1cc(CC(F)F)sc12 [Compound 556] | < 0.1 |
| Cc1cc2c(s1)CCO[C@@]21CCN(CC(O)C(N)=O)[C@@H](C)C1 (some centres unmarked) [Compound 501] | 0.1 to 0.5 |
| CCc1cc2c(s1)CCO[C@@]21CCN(CC2CN(C(=O)[C@H]3CCC(=O)N3)C2)[C@@H](C)C1 [Compound 487] | 0.1 to 0.5 |
| Cc1ccc(CN2CC[C@]3(C[C@@H]2C)OC[C@H](O)c2cc(Cl)sc23)c(C)n1 [Compound 788] | 0.1 to 0.5 |
| CCc1cc2c(s1)CCO[C@@]21CCN(CC2CN(S(=O)(=O)c3cnn4c3OCCC4)C2)[C@@H](C)C1 [Compound 495] | 0.5 to 1 |
| C[C@H]1C[C@@]2(CCN1Cc1cnc(N3CCOCC3)nc1)OC[C@H](O)c1cc(Cl)sc12 [Compound 800] | < 0.1 |
| CCc1cc2c(s1)CCO[C@@]21CCN(CC2CN(C(=O)CCO)C2)[C@@H](C)C1 [Compound 447] | 0.1 to 0.5 |
| C[C@H]1C[C@@]2(CCN1Cc1cn(-c3ncccn3)cn1)OC[C@H](O)c1cc(Cl)sc12 [Compound 790] | 0.1 to 0.5 |
| CCc1cc2c(s1)CCO[C@@]21CCN(C[C@H]2C[C@@H](NC(=O)C3CC(C(F)(F)F)C3)C2)[C@@H](C)C1 (some centres unmarked) [Compound 331] | 0.1 to 0.5 |
| C[C@H]1C[C@@]2(CCN1CC1(C)COC1)OCCc1c2sc(Cl)c1CO [Compound 746] | 0.5 to 1 |
| C[C@H]1C[C@@]2(CCN1Cc1cnn(C[C@H](O)C(=O)N(C)C)c1)OC[C@@H](O)c1cc(C(F)(F)F)sc12 [Compound 998] | < 0.1 |
| COc1cc(OCC(N)=O)ccc1CN1CC[C@]2(C[C@@H]1C)OCCc1c2sc(Cl)c1CO [Compound 716] | 0.1 to 0.5 |
| CCc1cc2c(s1)CCO[C@@]21CCN(CC(O)CO)[C@@H](C)C1 (some centres unmarked) [Compound 281] | 0.1 to 0.5 |
| CCc1cc2c(s1)CCOC21CCN(Cc2cn(CC3(C)COCCO3)nn2)C(C)C1 (centres unmarked) [Compound 102] | < 0.1 |
| CCc1cc2c(s1)C[C@@H](C)OC21CCN(Cc2cnn(C)c2)CC1 [Compound 1176] | 0.5 to 1 |
| CCc1cc2c(s1)CCOC21CCN(Cc2ccc(NCC3CCOCC3)nc2)CC1 [Compound 1068] | < 0.1 |
| C[C@H]1C[C@@]2(CCN1Cc1cnn(CC3(O)CCOCC3)c1)OCCc1c2sc(C(F)(F)F)c1CO [Compound 943, 4-[[4-[[(2′S, 7R)-3-(hydroxymethyl)-2′-methyl-2-(trifluoromethyl)spiro[4,5-dihydrothieno[2,3-c]pyran-7,4′-piperidine]-1′-yl]methyl]pyrazol-1-yl]methyl]tetrahydropyran-4-ol] | < 0.1 |

| Compound | IC50 [µM] |
| --- | --- |
| CCc1cc2c(s1)CCO[C@@]21CCN(CCn2cccn2)[C@@H](C)C1 [Compound 286] | 0.5 to 1 |
| CC(=O)Nc1ccc(CN2CC[C@]3(C[C@@H]2C)OC[C@H](O)c2cc(Cl)sc23)cc1 [Compound 799] | < 0.1 |
| CCc1cc2c(s1)CCOC21CCN(Cc2cn(CCS(=O)(=O)C3CCOCC3)nn2)CC1 [Compound 1091] | 0.5 to 1 |
| CCc1cc2c(s1)CCO[C@@]21CCN(Cc2cn(CC(O)c3nccn3C)nn2)[C@@H](C)C1 (some centres unmarked) [Compound 69] | < 0.1 |
| CC1COC2(CCN(Cc3cn(CCS(C)(=O)=O)nn3)[C@@H](C)C2)c2cc(Cl)sc21 (some centres unmarked) [Compound 536] | < 0.1 |
| Cc1ncccc1CN1CC[C@]2(C[C@@H]1C)OC[C@H](O)c1cc(Cl)sc12 [Compound 770] | 0.1 to 0.5 |
| [2H]C([2H])([2H])OC1CO[C@@]2(CCN(Cc3cnn(CCS(C)(=O)=O)c3)[C@@H](C)C2)c2sc(Cl)cc21 (some centres unmarked) [Compound 846] | < 0.1 |
| CCc1cc2c(s1)CCO[C@@]21CCN(C[C@H]2C[C@@H](NC(=O)C(O)C(F)(F)F)C2)[C@@H](C)C1 (some centres unmarked) [Compound 339] | < 0.1 |
| CCc1cc2c(s1)CCO[C@@]21CCN(C[C@H]2C[C@@H](NC(=O)c3cc(CO)n[nH]3)C2)[C@@H](C)C1 [Compound 363] | < 0.1 |
| CCc1cc2c(s1)CCO[C@@]21CCN(Cc2cn(CCN3C(=O)CCC3=O)nn2)[C@@H](C)C1 [Compound 173] | 0.1 to 0.5 |
| Cc1cc2c(s1)CCO[C@@]21CCN(C2COCC2O)[C@@H](C)C1 (single isomer, unassigned) [Compound 499] | < 0.1 |
| Cn1cc(CN2CCC3(CC2)OCC(C)(C)c2sc(Cl)cc23)cn1 [Compound 1178, 2-chloro-7,7-dimethyl-1′-[(1-methylpyrazol-4-yl)methyl]spiro[6H-thieno[3,2-c]pyran-4,4′-piperidine]] | < 0.1 |
| C[C@H]1C[C@@]2(CCN1C[C@H]1C[C@@H](NC(=O)C3CC3(F)F)C1)OCCc1cc(CC(F)F)sc12 (some centres unmarked) [Compound 551] | < 0.1 |
| CCc1cc2c(s1)CCO[C@@]21CCN(CC(C)(C)O)[C@@H](C)C1 [Compound 236] | 0.1 to 0.5 |
| CCc1cc2c(s1)CCOC21CCN(Cc2ccc(N3C[C@@H](O)[C@H](O)C3)nc2)CC1 [Compound 1066, (3R,4R)-1-(5-((2′-ethyl-6′,7′-dihydrospiro[piperidine-4,4′-thieno[3,2-c]pyran]-1-yl)methyl)pyridin-2-yl)pyrrolidine-3,4-diol] | < 0.1 |
| CCc1cc2c(s1)CCOC21CCN(Cc2cn(CCS(C)(=O)=O)nn2)CC1 [Compound 1085] | 0.5 to 1 |
| C[C@H]1C[C@@]2(CCN1CC1CCC(=O)N1)OCCc1cc(CC(F)F)sc12 (some centres unmarked) [Compound 619] | 0.1 to 0.5 |
| COc1ncc(CN2CC[C@]3(C[C@@H]2C)OCCc2c3sc(Cl)c2CO)cn1 [Compound 729] | < 0.1 |
| C[C@H]1C[C@@]2(CCN1Cc1cccnc1)OCCc1cc(Cl)sc12 [Compound 639] | < 0.1 |
| Cc1c(Cl)sc2c1C(O)CO[C@@]21CCN(Cc2cnn(CCS(C)(=O)=O)c2)[C@@H](C)C1 (single isomer, unassigned) [Compound 859, (2′S, 7R)-2-chloro-2′,3-dimethyl-1′-[[1-(2-methylsulfonylethyl)pyrazol-4-yl]methyl]spiro[4,5-dihydrothieno[2,3-c]pyran-7,4′-piperidine]-4-ol] | < 0.1 |

| Compound | IC50 [µM] |
| --- | --- |
| C[C@H]1C[C@@]2(CCN1C1COCC1O)OCCc1cc(CC(F)F)sc12 (some centres unmarked) [Compound 597] | < 0.1 |
| CCc1cc2c(s1)CCO[C@@]21CCN(CC(O)CC#N)[C@@H](C)C1 (some centres unmarked) [Compound 280] | 0.1 to 0.5 |
| CCc1cc2c(s1)CCOC21CCN(Cc2cnc(Nc3cccnc3)nc2)CC1 [Compound 1074] | < 0.1 |
| C[C@H]1C[C@@]2(CCN1Cc1cnn(CCS(C)(=O)=O)c1)OCC(N)c1cc(Cl)sc12 (stereo partly drawn) [Compound 854, (2′S, 7R)-2-chloro-2′-methyl-1′-[[1-(2-methylsulfonylethyl)pyrazol-4-yl]methyl]spiro[4,5-dihydrothieno[2,3-c]pyran-7,4′-piperidine]-4-amine] | < 0.1 |
| CCc1cc2c(s1)CCO[C@@]21CCN(Cc2cn(CCCS(C)(=O)=O)nn2)[C@@H](C)C1 [Compound 183] | < 0.1 |
| CCc1cc2c(s1)CCOC21CCN(Cc2cnc(NCc3cc[nH]c(=O)c3)nc2)CC1 [Compound 1075] | 0.1 to 0.5 |
| C[C@H]1C[C@@]2(CCN1Cc1ccnn1C)OCCc1cc(Cl)sc12 [Compound 681] | 0.5 to 1 |
| C[C@H]1C[C@@]2(CCN1Cc1cnn(CC(C)(C)O)c1)OCCc1c2sc(C(F)(F)F)c1CO [Compound 895] | < 0.1 |
| COCCc1ncc(CN2CC[C@]3(C[C@@H]2C)OC[C@H](O)c2cc(Cl)sc23)cn1 [Compound 797] | 0.1 to 0.5 |
| C[C@H]1C[C@@]2(CCN1Cc1cnn(CCS(C)(=O)=O)c1)OCC(O)c1cc(C(F)(F)F)sc12 (single isomer, unassigned) [Compound 881] | < 0.1 |
| Cn1cc(CN2CCC3(CC2)OCCc2sc(Cl)cc23)cn1 [Compound 1168] | 0.5 to 1 |
| CC1Cc2sc(Cl)cc2C2(CCN(Cc3cnn(C)c3)[C@@H](C)C2)O1 (single isomer, unassigned) [Compound 528, (2′S)-2-chloro-2′,6-dimethyl-1′-[(1-methylpyrazol-4-yl)methyl]spiro[6,7-dihydrothieno[3,2-c]pyran-4,4′-piperidine]] | 0.1 to 0.5 |
| C[C@H]1C[C@@]2(CCN1Cc1cccnc1)OCCc1c2sc(Cl)c1CO [Compound 757] | < 0.1 |
| CC1COC2(CCN(Cc3cn(CCS(C)(=O)=O)nn3)[C@@H](C)C2)c2cc(C(F)(F)F)sc21 (some centres unmarked) [Compound 541] | < 0.1 |
| C[C@H]1C[C@@]2(CCN1Cc1cnn(C3CS(=O)(=O)C3)c1)OCCc1c2sc(C(F)(F)F)c1CO [Compound 907] | < 0.1 |
| C[C@H]1C[C@@]2(CCN1Cc1cn(CC(C)(CO)CO)nn1)OCCc1cc(Cl)sc12 [Compound 629] | 0.1 to 0.5 |
| CCc1cc2c(s1)CCO[C@@]21CCN(C[C@H]2C[C@@H](NC(=O)CS(=O)(=O)NC)C2)[C@@H](C)C1 [Compound 342] | < 0.1 |
| CCc1cc2c(s1)CCO[C@@]21CCN(C[C@H]2C[C@@H](NC(=O)C(C)S(C)(=O)=O)C2)[C@@H](C)C1 (some centres unmarked) [Compound 341] | < 0.1 |
| CCc1cc2c(s1)C(C)COC21CCN(Cc2cn(CCS(C)(=O)=O)nn2)[C@@H](C)C1 (some centres unmarked) [Compound 535] | < 0.1 |
